This is an account of results in ChEMBL document CHEMBL1154070, “QSAR study of Akt/protein kinase B (PKB) inhibitors using support vector machine” (Eur J Med Chem, 2009).

pIC50: −log10 of the molar value.

For this test, the target named is RAC-alpha serine/threonine-protein kinase (Homo sapiens, UniProt P31749). In words: Inhibition of Akt.
Chain of RAC-alpha serine/threonine-protein kinase (P31749 whole entry): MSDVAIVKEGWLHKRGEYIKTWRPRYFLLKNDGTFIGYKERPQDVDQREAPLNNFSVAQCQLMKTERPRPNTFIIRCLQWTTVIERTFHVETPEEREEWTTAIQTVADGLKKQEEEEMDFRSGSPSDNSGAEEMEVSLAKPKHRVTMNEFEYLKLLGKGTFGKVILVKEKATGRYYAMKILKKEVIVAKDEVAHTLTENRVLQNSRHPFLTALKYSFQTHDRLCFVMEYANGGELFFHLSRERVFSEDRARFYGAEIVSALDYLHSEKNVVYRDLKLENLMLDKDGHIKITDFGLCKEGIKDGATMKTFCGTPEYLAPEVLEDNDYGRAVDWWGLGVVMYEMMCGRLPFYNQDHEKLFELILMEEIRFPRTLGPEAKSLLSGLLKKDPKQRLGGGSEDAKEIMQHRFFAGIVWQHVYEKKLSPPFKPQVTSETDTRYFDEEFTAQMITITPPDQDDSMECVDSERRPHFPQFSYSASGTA
The pIC50 is the IC50 on a negative log10 scale, so that one unit is a factor of ten. Low values mean a high IC50, high ones a low IC50. Compound `N[C@H](CNc1cnc(Cl)c(/C=C/c2ccncc2)c1)Cc1c[nH]c2ccccc12` gave a pIC50 of 7.10.

With `N[C@H](COc1cncc(/C=C/c2ccncc2)c1)C(c1ccccc1)c1ccccc1`, the pIC50 is 6.56. `N[C@H](COc1cncc(-c2ccc3c(=O)[nH]ccc3c2)c1)Cc1c[nH]c2ccccc12`: the pIC50 is 5.99. `N[C@H](COc1cncc(-c2ccncc2)c1)Cc1c[nH]c2ccccc12` showed a pIC50 of 6.61. On to `N[C@H](COc1cncc(C(=O)Nc2ccncc2)c1)Cc1c[nH]c2ccccc12`, for which the pIC50 was 5.78. Next, `Nc1nccc2cc(-c3cncc(OC[C@@H](N)Cc4c[nH]c5ccccc45)c3)ccc12`: 6.73. For `N[C@H](COc1cncc(-c2ccc3c(c2)CC(=O)N3)c1)Cc1ccccc1` the value was 7.80. Turning to `Cc1n[nH]c2cnc(-c3cncc(OC[C@@H](N)Cc4ccccc4)c3)cc12`, the pIC50 is 7.85. This pIC50 and that of the compound before are within 0.2 log units of each other.

Compound `N[C@H](COc1cncc(-c2ccc3c(c2)/C(=C/c2ccc[nH]2)C(=O)N3)c1)Cc1ccccc1` gave a pIC50 of 9.22. Consider `N[C@H](COc1cncc(-c2cc3ccncc3s2)c1)Cc1c[nH]c2ccccc12`, for which the pIC50 is 6.75. On to `N[C@H](COc1cncc(-c2ccc3ccccc3c2)c1)Cc1c[nH]c2ccccc12`, for which the pIC50 was 5.95. This pIC50 is 0.80 log units lower than that of the compound before. `O=C1C(Sc2cccc(Cl)c2Cl)=C(Cl)C(=O)c2[nH]ncc21` had a pIC50 of 4.91. For `Cc1cc(C)c(C[C@H](N)COc2cncc(-c3cc4c(C)n[nH]c4cn3)c2)c(C)c1`, the pIC50 is 7.41. Compound `Cc1n[nH]c2cnc(-c3cncc(OC[C@@H](N)Cc4ccc(C(F)(F)F)cc4)c3)cc12` showed a negative logarithm of the IC50 (pIC50) of 7.74.

As to `N[C@H](COc1cncc(-c2ccc3[nH]nc(-c4ccc[nH]4)c3c2)c1)Cc1c[nH]c2ccccc12`, the pIC50 is 8.92. This pIC50 lies 1.18 log units higher than the previous one.

The compound `N[C@H](COc1cncc(-c2ccc(NC(=O)Nc3ccccc3)cn2)c1)Cc1c[nH]c2ccccc12` gave a pIC50 of 5.95. Turning to `N[C@H](COc1cncc(-c2ccc3c(c2)C(c2cccs2)C(=O)N3)c1)Cc1c[nH]c2ccccc12` (stereo partly specified), the pIC50 is 9.05. For `CN(C)c1n[nH]c2ccc(-c3cncc(OC[C@@H](N)Cc4c[nH]c5ccccc45)c3)cc12` the value was 7.74; for `N[C@H](COc1cncc(-c2ccc3[nH]nc(C4CC4)c3c2)c1)Cc1c[nH]c2ccccc12`, 8.59; for `CCc1ncc(OC[C@@H](N)Cc2c[nH]c3ccccc23)cc1-c1ccc2cnccc2c1`, 9.10.

Consider `N[C@H](COc1cncc(-c2ccc3c(c2)C(c2c[nH]c4ccccc24)C(=O)N3)c1)Cc1c[nH]c2ccccc12` (stereo partly specified), for which the pIC50 was 6.82.

As to `Cc1ccc(F)cc1C[C@H](N)COc1cncc(-c2cc3c(C)n[nH]c3cn2)c1`, the pIC50 is 8.41.

The compound `N[C@H](COc1cncc(-c2ccc3c(c2)C(c2ccco2)C(=O)N3)c1)Cc1c[nH]c2ccccc12` (stereo partly specified) gave a pIC50 of 9.77. Against the preceding compound, the pIC50 is 1.36 log units higher. For `N[C@H](COc1cncc(-c2ccc3c(c2)C(c2ccccn2)C(=O)N3)c1)Cc1c[nH]c2ccccc12` (stereo partly specified) the value was 7.99; for `Cc1n[nH]c2cnc(-c3cncc(OC[C@@H](N)Cc4c(F)cccc4F)c3)cc12`, 7.18. Compound `Cc1cc(C[C@H](N)COc2cncc(-c3cc4c(C)n[nH]c4cn3)c2)ccc1F` gave a pIC50 of 8.60. This pIC50 lies 1.42 log units higher than the previous one.

Consider `N[C@H](COc1cncc(-c2ccc3ncccc3c2)c1)Cc1c[nH]c2ccccc12`, for which the pIC50 is 6.51. In turn, `N[C@H](COc1cncc(-c2ccc3nnccc3c2)c1)Cc1c[nH]c2ccccc12` had a pIC50 of 6.67. The pIC50 values of the last two compounds are within 0.2 log units of each other. Next, `Cc1n[nH]c2cnc(-c3cncc(OC[C@@H](N)Cc4cccc(F)c4)c3)cc12`: 8.08; `Cc1n[nH]c2cnc(-c3cncc(OC[C@@H](N)Cc4ccc(Br)cc4)c3)cc12`: 8.30. On to `CCc1n[nH]c2ccc(-c3cncc(OC[C@@H](N)Cc4c[nH]c5ccccc45)c3)cc12`, for which the pIC50 was 8.94. `CC1C(=O)Nc2ccc(-c3cncc(OC[C@@H](N)Cc4c[nH]c5ccccc45)c3)cc21` (stereo partly specified) showed a pIC50 of 8.40. For `N[C@H](COc1cncc(-c2ccc3c(c2)C(=O)C(=O)N3)c1)Cc1c[nH]c2ccccc12`, the pIC50 was 8.27. Compound `N[C@H](COc1cncc(-c2ccc3c(c2)C(C2CC2)C(=O)N3)c1)Cc1c[nH]c2ccccc12` (stereo partly specified) showed a pIC50 of 8.48. This pIC50 lies 0.21 log units higher than the previous one. Take `O=c1[nH]c2ccccc2n1C1CCN(Cc2ccc(-c3nc4cc(-n5cnnn5)ccc4nc3-c3ccccc3)cc2)CC1`: the pIC50 is 7.70.

In turn, `Cn1cc(C(CN)Oc2cncc(/C=C/c3ccncc3)c2)c2ccccc21` (stereo unspecified) showed a pIC50 of 6.12. Take `O=c1[nH]c2ccccc2n1C1CCN(Cc2ccc(-c3nc4ccc(-n5cnnn5)cc4nc3-c3ccccc3)cc2)CC1`: the pIC50 was 7.20.

The compound `N[C@H](COc1cncc(-c2ccc3[nH]nc(-c4ccccc4)c3c2)c1)Cc1c[nH]c2ccccc12` had a pIC50 of 8.41. Compared with the last compound, the pIC50 is 1.21 log units higher. For `N[C@H](COc1cncc(-c2ccc3[nH]nc(C=O)c3c2)c1)Cc1c[nH]c2ccccc12` the value was 5.73; for `Cc1n[nH]c2cnc(-c3cncc(OC[C@@H](N)Cc4cccc(OCC5CCCCC5)c4)c3)cc12`, 5.87. With `Cc1n[nH]c2cnc(-c3cncc(OC[C@@H](N)Cc4cccc(OCCN)c4)c3)cc12`, the pIC50 is 7.33.

In turn, `Cc1n[nH]c2cnc(-c3cncc(OC[C@@H](N)Cc4ccc(F)c(F)c4F)c3)cc12` gave a negative-log IC50 (pIC50) of 7.92.

For the compound `N[C@H](COc1cncc(-c2ccc3[nH]nc(-c4nccs4)c3c2)c1)Cc1c[nH]c2ccccc12`, the pIC50 was 8.01. For `CC(C)=C1C(=O)Nc2ccc(-c3cncc(OC[C@@H](N)Cc4c[nH]c5ccccc45)c3)cc21` the value was 7.10; for `N[C@H](COc1cncc(-c2cnc3c(c2)CC(=O)N3)c1)Cc1c[nH]c2ccccc12`, 8.13; for `Cc1cc(F)ccc1C[C@H](N)COc1cncc(-c2cc3c(C)n[nH]c3cn2)c1`, 8.22. In turn, `Cc1n[nH]c2cnc(-c3cncc(OC[C@@H](N)Cc4cccc(OCCN5CCOCC5)c4)c3)cc12` had a pIC50 of 6.12. This pIC50 is 2.10 log units lower than that of the compound before. Next, `Cc1ccc(C2C(=O)Nc3ccc(-c4cncc(OC[C@@H](N)Cc5c[nH]c6ccccc56)c4)cc32)o1` (stereo partly specified): 9.15; `N[C@H](COc1cncc(CCc2ccncc2)c1)Cc1c[nH]c2ccccc12`: 6.68. Consider `N[C@H](COc1cncc(-c2ccc3c(c2)C(Cc2ccco2)C(=O)N3)c1)Cc1ccccc1` (stereo partly specified), for which the pIC50 is 8.85. Next, `CC(C)c1nc(-c2ccccc2)c(-c2ccc(CN3CCC(n4c(=O)[nH]c5ccccc54)CC3)cc2)[nH]c1=O`: 4.67; `Cc1n[nH]c2cnc(-c3cncc(OC[C@@H](N)Cc4cccc5c4OC(F)(F)O5)c3)cc12`: 7.85.

`N[C@H](COc1cncc(-c2ccc3c(c2)C(c2ccc[nH]2)C(=O)N3)c1)Cc1c[nH]c2ccccc12` (stereo partly specified) had a pIC50 of 8.82. Compared with the last compound, the pIC50 is 0.97 log units higher. Compound `Cc1n[nH]c2cnc(-c3cncc(OC[C@@H](N)Cc4cccc(OCC5CCNCC5)c4)c3)cc12` gave a pIC50 of 8.17.

The compound `N[C@H](COc1cncc(-c2ccc3c(c2)C(c2cccnc2)C(=O)N3)c1)Cc1c[nH]c2ccccc12` (stereo partly specified) showed a pIC50 of 7.98. This pIC50 and that of the compound before are within 0.2 log units of each other. The compound `N[C@H](COc1cncc(NC(=O)c2ccncc2)c1)Cc1c[nH]c2ccccc12` had a pIC50 of 5.69. `N[C@H](COc1cncc(-c2ccc3[nH]nc(-c4cccs4)c3c2)c1)Cc1c[nH]c2ccccc12`: the pIC50 was 8.89. The compound `N[C@H](COc1cncc(-c2ccc(CO)cc2)c1)Cc1c[nH]c2ccccc12` gave a pIC50 of 5.40. On to `N[C@H](COc1cncc(-c2ccc3[nH]c(=O)sc3c2)c1)Cc1c[nH]c2ccccc12`, for which the pIC50 was 7.00. Compared with the last compound, the pIC50 is 1.60 log units higher.

Compound `C(=C\c1cncc(OCC2CCN2)c1)/c1ccncc1` (stereo unspecified) gave a pIC50 of 4.96.

The compound `CCC1C(=O)Nc2ccc(-c3cncc(OC[C@@H](N)Cc4c[nH]c5ccccc45)c3)cc21` (stereo partly specified) gave a pIC50 of 7.28. Next, `N[C@H](COc1cncc(-c2ccc3c(c2)C(F)(F)C(=O)N3)c1)Cc1c[nH]c2ccccc12`: 8.82. In turn, `N[C@H](COc1cncc(-c2ccc3c(c2)C(c2ccccc2)C(=O)N3)c1)Cc1c[nH]c2ccccc12` (stereo partly specified) gave a negative logarithm of the IC50 (pIC50) of 8.23. Next, `CCc1c(C)[nH]c(C2C(=O)Nc3ccc(-c4cncc(OC[C@@H](N)Cc5c[nH]c6ccccc56)c4)cc32)c1C` (stereo partly specified): 7.39. Next, `Nc1n[nH]c2ccc(-c3cncc(OC[C@@H](N)Cc4c[nH]c5ccccc45)c3)cc12`: 8.54; `Cc1cc(C2C(=O)Nc3ccc(-c4cncc(OC[C@@H](N)Cc5c[nH]c6ccccc56)c4)cc32)oc1C` (stereo partly specified): 8.00.

`N[C@H](COc1cncc(-c2ccc3[nH]nc(N4CCOCC4)c3c2)c1)Cc1c[nH]c2ccccc12`: the negative-log IC50 (pIC50) is 7.74. For `N[C@H](COc1cncc(-c2ccc3c(c2)C(c2ncc[nH]2)C(=O)N3)c1)Cc1c[nH]c2ccccc12` (stereo partly specified) the value was 8.14. Next, `N[C@H](COc1cncc(-c2cccc3cnccc23)c1)Cc1c[nH]c2ccccc12`: 6.48; `Cn1cccc1C1C(=O)Nc2ccc(-c3cncc(OC[C@@H](N)Cc4c[nH]c5ccccc45)c3)cc21` (stereo partly specified): 8.09; `O=C1C(Nc2cc(F)ccc2F)=C(Cl)C(=O)c2[nH]ncc21`: 4.80.
